The test system of experiment [1] is estrogen receptor preparations from rat prostates. Description: Competitive 3H-estradiol binding, rat prostate cytosol estrogen receptor. Conditions: for Rat prost. ER(RBA): 3H-estradiol as ligand, rat prostate cytosol, estradiol = 100.
The test system of experiment [2] is estrogen receptor preparations from rat uteri. Kind of experiment: Competitive 3H-estradiol binding, rat uterus cytosol estrogen receptor. As to conditions: 3H-estradiol as ligand, estradiol = 100.
The test system of experiment [3] is hERβ. Kind of experiment: Relative binding affinity to hERβ (Kuiper et al.). Details: species or system human. Conditions: quotient of RBA to ERβ and ERα. From the text: In this case, it is assumed that ERβ predominates in the rat prostates over ERα, and ERα predominates in rat uteri over ERβ.
For experiment [4], the system named is hERβ. Conditions: cited from earlier work.
Setting [5] is: relative binding affinity, estradiol = 100.

Where two headings read alike, the source gives them in different places.

On to `C[C@]12CCC(O)CC1=CC[C@@H]1[C@@H]2CC[C@]2(C)C(O)CC[C@@H]12` (stereo partly drawn) [5-Androstene-diol], for which, in experiment [1], the “Rat prost. ER(RBA)” value came out at 5. Moreover, the “prost. ER/uterus ER” value in experiment [1] (ratio of the binding to prostate and uterus receptors) stood at 50. Further, in experiment [2], the “Rat uterus ER(RBA)” value amounted to 0.1. Moreover, in experiment [3], the ERβ/ERα came to 3. For the same molecule, in experiment [4], the “hERβ RBA” value is 17.

In the case of `C[C@]12CC[C@@H]3c4ccc(O)cc4CC[C@H]3[C@@H]1C[C@@H](O)[C@@H]2O` [Estriol], the “hERβ RBA” value in experiment [4] (setting [5]) is 21.

On to Estradiol, for which the “Rat prost. ER(RBA)” value in experiment [1] came to 100. The “Rat uterus ER(RBA)” value in experiment [2] worked out at 100. The “hERβ RBA” value in experiment [4] (setting [5]) was 100.

(Values after patent US20030171345A1 (priority 2001, published 2003).)
